Experimental findings from US9757375B2, “Compounds that inhibit human DNA ligases and methods of treating cancer” (University of Maryland, Baltimore, priority 2007, dated 2017) are described below.

For one assay, the system named is HCT116 cells. The assay is described as follows: Cell proliferation screen (SYBR Green, Biomek FX). Format: cell-based, human. To be noted: 50 μM; percentage of values obtained with DMSO alone. As for the experimental part:
The ability of the compounds identified by CADD to inhibit proliferation of normal mammary epithelial MCF10A cells and colon carcinoma HCT116 cells was determined using a Biomek FX Laboratory Automation Workstation (Beckman Coulter, Inc., Fullerton, Calif.). On day 0, 20 μl of complete medium containing the appropriate number of cells (150-300) was plated per well of a 384-well tissue plate (Fisher Scientific, Hampton, N.H.) and incubated overnight at 37° C. with 5% CO2 and 90% humidity. Next day, day 1, compounds were prepared by serial dilution with complete medium to yield the concentration 100 μM, and 20 μl was added to each well containing 20 μl of medium and cells yielding the final concentration 50 μM in 40 μl volume. Plates were incubated for additional 3 days (days-2-5) until control cells (0.5% DMSO) reached ˜70-80% confluency. On day 6, 40 μl of lysis/detection solution containing 1.2% Igepal CA-630 (Sigma) and a 1:1000 dilution of SYBR Green I nucleic acid stain (Molecular Probes, Eugene, Oreg.) was added to each well. Following an overnight incubation at 37° C., total fluorescence was measured using a Fluorostar Galaxy plate reader with a 485 nm excitation filter and 520 nm emission filter set (BMG Labtech, Inc., Durham, N.C.). Data was exported to a custom program that determined growth inhibition by dividing each individual fluorescence value by the average of fluorescence values obtained with cells treated with DMSO alone.
The 192 human DNA ligase inhibitors were screened in parallel for effects on proliferation and the ability to potentiate the effects of several DNA damaging agents using two cell human lines, a colon cancer line HCT116 and a normal breast epithelial cell line MCF10A using a Biomek FX Laboratory Automation Workstation as described (23). The DNA damaging agents used, methyl methanesulfonate (MMS), camptothecin, cis-platinum, 3 aminobenzamide and ionizing radiation, are representatives of classes of agents used to treat cancer. Briefly, HCT116 and MCF10A cells were plated in 96 well plates such that the cultures were about 80% confluent after 5 days incubation. Compounds were added to the cultures at either 15 μM or 50 μM 1 day after plating. After incubation for 3 days, cell lysed in a solution containing 1.2% Igepal CA-630 and SYBR green that stains DNA (1:1000, Molecular Probes, Eugene, Oreg.). Subsequently, fluorescence was measured per well. The studies with DNA damaging agents were performed as follows. […] For ionizing radiation, cells were pre-incubated with the compounds at 50 μM for 1 hour prior to exposure to 2 gray of ionizing radiation. Cultures were incubated for 3 days and then treated as above.

The test system of a further assay is DNA. The assay is described as follows: DNA binding by displacement of ethidium bromide from DNA. To be noted: EtBr replacement assay; 192 at 0, 50, 100 μM. Here is the method:
Candidate ligase inhibitors identified by CADD were assayed for their ability to inhibit hLigI and T4 DNA ligase using a high-throughput, fluorescence energy transfer-based DNA joining assay (22). Duplicate reactions (30 μL) containing 10 pmol of nicked DNA substrate and either 0.25 pmol of hLigI or 10 units of T4 DNA ligase were incubated in the presence or absence of 100 μmol/L of the putative inhibitor. DNA binding by the candidate DNA ligase inhibitors was measured by displacement of ethidium bromide from DNA as previously described (30).

Another assay has as its target T1, hLigI (Homo sapiens, UniProt P18858).
T1 construct: made in house
Description: High-throughput fluorescence-based DNA joining (ligation) assay. Format: biochemical. The following applies: in vitro screen, 100 μmol/L; the 15 hLigI inhibitors inhibited by >50%. The essentials:
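Nicked DNA substrate (10 pmol) was incubated with 0.25 pmol hLigI, with or without 100 μmol/L test compound, in duplicate. Afterwards the DNA was denatured and renatured with a 20-fold excess of unmodified oligonucleotide. Ligation forms an AF488/BHQ1 hairpin, read as reduced fluorescence at 518 nm.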

Another assay deals with T2, T4 DNA ligase (Enterobacteria phage T4, UniProt P00970).
T2 construct: purchased NEB
T2 sequence (P00970 1-487): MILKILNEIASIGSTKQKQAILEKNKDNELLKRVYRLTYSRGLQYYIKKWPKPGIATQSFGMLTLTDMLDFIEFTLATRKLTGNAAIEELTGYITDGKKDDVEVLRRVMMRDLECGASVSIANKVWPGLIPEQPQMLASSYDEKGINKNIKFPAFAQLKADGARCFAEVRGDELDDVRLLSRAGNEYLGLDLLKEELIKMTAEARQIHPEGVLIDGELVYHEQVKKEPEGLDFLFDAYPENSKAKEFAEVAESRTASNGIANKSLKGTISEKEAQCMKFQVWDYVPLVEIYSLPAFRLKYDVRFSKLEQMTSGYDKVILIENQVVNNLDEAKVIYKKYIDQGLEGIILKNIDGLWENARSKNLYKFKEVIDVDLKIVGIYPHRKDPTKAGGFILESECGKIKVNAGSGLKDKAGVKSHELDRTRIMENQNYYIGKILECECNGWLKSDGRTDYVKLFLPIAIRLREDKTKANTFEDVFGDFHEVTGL
Description: High-throughput fluorescence-based DNA joining assay, non-specific inhibitor control. Format: biochemical, bacteriophage T4. The following applies: in vitro screen, 100 μmol/L. In outline:
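This counter-screen used a FRET-based DNA joining assay. Duplicate reactions held 10 pmol nicked DNA substrate and 10 units T4 DNA ligase, with or without 100 μmol/L compound. T4 ligase lacks the DNA-binding domain targeted in silico, so compounds inhibiting it were flagged as non-specific, likely DNA-binding.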

SMILES strings stand for the structures. “Also recorded” adds a separate entry of the source.

T1 sequence (P18858 whole entry): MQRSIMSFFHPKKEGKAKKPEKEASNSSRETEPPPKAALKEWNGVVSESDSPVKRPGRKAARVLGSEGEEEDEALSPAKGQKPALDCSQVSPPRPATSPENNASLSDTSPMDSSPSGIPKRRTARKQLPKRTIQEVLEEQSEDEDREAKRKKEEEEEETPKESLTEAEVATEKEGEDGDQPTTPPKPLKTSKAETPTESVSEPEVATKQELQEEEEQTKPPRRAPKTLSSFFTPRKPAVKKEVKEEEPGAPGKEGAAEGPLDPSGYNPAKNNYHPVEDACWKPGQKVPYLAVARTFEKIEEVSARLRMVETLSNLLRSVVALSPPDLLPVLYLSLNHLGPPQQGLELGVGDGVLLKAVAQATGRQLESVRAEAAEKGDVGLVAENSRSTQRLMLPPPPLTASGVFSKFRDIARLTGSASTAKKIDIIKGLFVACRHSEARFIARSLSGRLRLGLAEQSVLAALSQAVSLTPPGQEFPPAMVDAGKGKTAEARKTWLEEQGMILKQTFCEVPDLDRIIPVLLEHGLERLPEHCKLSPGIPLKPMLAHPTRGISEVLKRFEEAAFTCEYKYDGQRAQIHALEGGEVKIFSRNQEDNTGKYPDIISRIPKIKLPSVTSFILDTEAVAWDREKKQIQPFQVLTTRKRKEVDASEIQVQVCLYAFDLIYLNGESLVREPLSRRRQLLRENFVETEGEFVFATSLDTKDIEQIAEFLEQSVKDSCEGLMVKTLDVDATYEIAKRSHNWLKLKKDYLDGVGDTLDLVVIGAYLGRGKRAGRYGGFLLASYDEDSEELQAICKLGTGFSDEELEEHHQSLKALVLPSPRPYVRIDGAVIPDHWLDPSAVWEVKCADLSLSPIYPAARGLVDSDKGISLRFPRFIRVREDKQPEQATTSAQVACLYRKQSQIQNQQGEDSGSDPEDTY

`O=S(=O)(O)N=Nc1ccc2c(c1)[nH]c1ccccc12` [Compound 192]: in the assay on HCT116 cells, the “Growth_Inh % (50 μM) HCT116” value is given as 70%. Further, the “DNA binding of compound (effect on DNA binding by ethidium bromide)” value with DNA is listed as “reduced DNA binding of the DNA intercalating agent ethidium bromide; also recorded: EtBr is replaced”. For the same molecule, the “inhibition of hLigI (DNA ligase I), in words” value at hLigI was “inhibited hLigI; also recorded: inhibits both hLigI and T4 DNA ligase”. Moreover, on T4 DNA ligase, the “inhibition of T4 DNA ligase, in words” value was “inhibits both hLigI and T4 DNA ligase”.
